# Data reported in patent EP0507256A2, “Tyrosine phosphorylation in protozoa” (Bristol-Myers Squibb Company, priority 1991, dated 1992).
# How the values were obtained:
# TREU 667 procyclic forms [1] = assay: Anti-p-tyr immunoblot (Western) analysis of protein tyrosine phosphorylation after orthovanadate treatment; assay type: cell-based, T. brucei; set-up: level of protein tyrosine phosphorylation of specific substrates, particularly ptp40 and ptp42: dose or concentration left out as unconfirmed
# Method: In the drawings: • FIGURE 1 illustrates the specificity of reactivity with anti-p-tyr antibodies. Lysate from the monomorphic trypanosome strain EATRO 164, clone IHRI 1, procyclic forms (10⁷ cells) was loaded per lane on a 10% sodium dodecyl sulfate polyacrylamide gel electrophoresis (SDS-PAGE) gel. Proteins were transferred to polyvinylidene difluoride membranes, incubated with anti-p-tyr antibodies, and followed by treatment with ¹²⁵I-protein A. Panel A: 0.25 µg ml⁻¹ anti-p-tyr antibodies. Panel B: 1 µg ml⁻¹ anti-p-tyr antibodies, plus 40 mM phenyl phosphate. Molecular weight markers are indicated. Lanes 1 and 2 differ only in the concentration of orthovanadate used during cell processing. • FIGURE 2 illustrates immunoprecipitation and phosphoamino acid analysis. Panel 2A: Western analysis of anti-p-tyr immunoprecipitates. Immunoreactive proteins were enriched by immunoprecipitation as described herein. Each lane was loaded with material corresponding to the same amount of cell lysate. Lanes: 1) total cell lysate; 2) lysate cleared of proteins reactive with anti-p-tyr; 3) eluate from anti-p-tyr immunoprecipitation. Panel 2B: Two-dimensional phosphoamino acid analysis. Procyclic forms were metabolically labelled with [³²P] orthophosphate, and proteins reactive with the anti-p-tyr antiserum were enriched by immunoprecipitation as described above. The proteins were hydrolyzed and phosphoamino acids separated by two-dimensional electrophoresis. […] Lysate of 10⁷ cells from each stage of the life cycle was loaded. TREU 667 is a pleiomorphic strain; EATRO 164 is a monomorphic strain. Independent samples produced by difluoromethylornithine (DFMO) treatment are indicated (D). PF 100% mid-log phase procyclic culture forms. SL Slender bloodforms (EATRO, 100% slender; TREU 75% slender). INT Intermediate bloodforms (approximately 20% slender, 60% intermediate, 20% late intermediate-stumpy). ST Stumpy bloodforms (>60% late intermediate-stumpy, the remainder intermediate). • FIGURE 4 illustrates the solubility analysis of immunoreactive proteins. TREU 667 procyclic form cells were lysed in buffer containing various detergents as indicated. Lanes: 1) 1% NP-40 + 0.25% deoxycholate; 2) 1% NP-40; 3) 2% SDS; 4) freeze/thaw lysis. Solubilized proteins (S), insoluble pellets (P), total lysate (T). • FIGURE 5 illustrates the effect of orthovanadate on cell growth. […] Growth of the parasites was monitored by measuring the optical density at 600 nm over ranges which were previously established to be linearly related to cell density. • FIGURE 6 illustrates the effect of orthovanadate on protein phosphorylation and tyrosine phosphorylation in TREU 667 procyclic forms. […] The cells were rinsed three times and an aliquot equivalent to 2.3 x 10⁵ cells was analyzed by SDS-PAGE and autoradiography. […]
# [2] = test system: TREU 667 procyclic form cells; assay: Effect of orthovanadate on cell growth (optical density at 600 nm); assay type: cell-based, T. brucei
# Method: (§1) In the drawings: • FIGURE 1 illustrates the specificity of reactivity with anti-p-tyr antibodies. Lysate from the monomorphic trypanosome strain EATRO 164, clone IHRI 1, procyclic forms (10⁷ cells) was loaded per lane on a 10% sodium dodecyl sulfate polyacrylamide gel electrophoresis (SDS-PAGE) gel. Proteins were transferred to polyvinylidene difluoride membranes, incubated with anti-p-tyr antibodies, and followed by treatment with ¹²⁵I-protein A. Panel A: 0.25 µg ml⁻¹ anti-p-tyr antibodies. Panel B: 1 µg ml⁻¹ anti-p-tyr antibodies, plus 40 mM phenyl phosphate. Molecular weight markers are indicated. Lanes 1 and 2 differ only in the concentration of orthovanadate used during cell processing. • FIGURE 2 illustrates immunoprecipitation and phosphoamino acid analysis. Panel 2A: Western analysis of anti-p-tyr immunoprecipitates. Immunoreactive proteins were enriched by immunoprecipitation as described herein. […] Growth of the parasites was monitored by measuring the optical density at 600 nm over ranges which were previously established to be linearly related to cell density. • FIGURE 6 illustrates the effect of orthovanadate on protein phosphorylation and tyrosine phosphorylation in TREU 667 procyclic forms. […] The cells were rinsed three times and an aliquot equivalent to 2.3 x 10⁵ cells was analyzed by SDS-PAGE and autoradiography. […]
# TREU 667 procyclic forms [3] = assay: SDS-PAGE analysis of proteins of cells metabolically labelled with [32P]-orthophosphate; assay type: cell-based, T. brucei; details: 1.5 µM orthovanadate, started one hour before overnight labelling (FIGURE 6C)
# Method: as §1
# T. brucei cells = assay: Tyrosine phosphorylation with tyrosine kinase inhibitors in the presence of orthovanadate; assay type: cell-based; details: in the presence of the tyrosine phosphatase inhibitor orthovanadate
# Text: Many inhibitors of mammalian tyrosine kinase have been investigated by the present inventors to determine if tyrosine phosphorylation is reduced in the tested organisms.
compound,measurement,setting,value
C[C@@H]1C[C@@H]([C@H](O)CC2CC(=O)NC(=O)C2)C(=O)[C@@H](C)C1 [cycloheximide],effect of cycloheximide on increased tyrosine phosphorylation mediated by orthovanadate,TREU 667 procyclic forms [1],does not prevent increased tyrosine phosphorylation
[O]=[V]([O-])([O-])[O-] [orthovanadate],growth and motility of procyclic forms,[2]; 1.5 µM orthovanadate,"nonmotile but continued to divide, albeit more slowly"
same,toxicity to trypanosomes,"[2]; procyclic forms, concentrations approaching those used to cause phenotypic transformation of mammalian cells (30 µM)",toxic
same,time until tyrosine phosphorylation was maximal,TREU 667 procyclic forms [1]; 15 µM orthovanadate (FIGURE 6B),≤ 2 h
same,"level of protein tyrosine phosphorylation of specific substrates, particularly ptp40 and ptp42",TREU 667 procyclic forms [1]; after 6 hours in orthovanadate (FIGURE 6A),increased dramatically
same,time until tyrosine phosphorylation returned to near control levels,"TREU 667 procyclic forms [1]; after the drug was removed (cells grown in orthovanadate, rinsed free of drug)",≤ 24 h
same,pattern of 32P-labelled proteins observed after SDS-PAGE,TREU 667 procyclic forms [3],the same in control and treated cells
O=c1c(-c2ccc(O)cc2)coc2cc(O)cc(O)c12 [genestin],tyrosine phosphorylation in T. brucei cells,T. brucei cells,decreased tyrosine phosphorylation
